Test results reported in patent US10006044B2, “Soybean event SYHT04R and compositions and methods for detection thereof” (Syngenta Participations AG, priority 2010, dated 2018).

Legend:
Type in all cases: in vivo, Glycine max
[1] = system: non-transgenic soybean line Jack; experiment: Field efficacy: leaf injury after mesotrione treatment, control line; settings: 210 g ai/ha mesotrione at V2/V3 stage, % of leaves showing injury, 9 US locations
Method: (§1) SYH[…] soybean plants were tested for efficacy against mesotrione in 9 locations in the United States. The non-transgenic soybean line Jack was used as a control. […]

[2] = system: Soybean event SYHT04R; experiment: Yield of soybean event SYHT04R sprayed with mesotrione versus the event unsprayed; settings: for average yield advantage versus unsprayed: SYHT04R in several elite soybean genotypes, additional replicated trials
Method: This observation has been made during multiple seasons of replicated agronomic and efficacy trials conducted on the STYHT04R event in the genotype ‘Jack.’ In a representative study, SYHT04R was tested in twenty Midwestern locations.

[3] = system: SYHT04R soybean plants; experiment: Field efficacy: leaf injury after mesotrione treatment, event SYHT04R; settings: line SYHT04R; 210 g ai/ha mesotrione at V2/V3 stage; % of leaves showing injury; 9 US locations
Method: as §1

[4] = system: event SYHT04R; experiment: Herbicide tolerance performance of transgenic seeds and progeny plants; settings: from a population of about 90 transformants
Excerpt: After plants became established in the soil and new growth appeared (˜1-2 weeks), plants were sampled and tested for the presence of desired transgene by TAQMAN® analysis using appropriate probes for the HPPD genes or promoters. Positive plants were transplanted into 4″ square pots containing Fafard #3 soil. Sierra 17-6-12 slow release fertilizer was incorporated into the soil at the recommended rate. The plants were then relocated into a standard greenhouse to acclimatize (˜1 week). The environmental conditions were: 27° C. day; 21° C. night; 14 hour photoperiod (with supplemental light); ambient humidity. After acclimatizing (˜1 week), the plants were sampled and tested in detail for the presence and copy number of inserted transgenes. Transgenic soybean plants were grown to maturity for T1 seed production. T1 plants were grown up, and after TAQMAN® analysis, homozygous plants were grown for seed production. Transgenic seeds and progeny plants were used to further evaluate their herbicide tolerance performance and molecular characteristics.

Compound: CS(=O)(=O)c1ccc(C(=O)C2C(=O)CCCC2=O)c([N+](=O)[O-])c1 [mesotrione]
- % Injury 5-11 DAT [1]: 57%
- % Injury 14-21 DAT [1]: 78%
- % Injury 25-36 DAT [1]: 72%
- greater yield than the unsprayed event ([2]; 2× application at early vegetative stage, separate study, ten locations): 1.4 bushels per acre
- greater yield than the unsprayed event ([2]; 2× application at early vegetative stage, twenty Midwestern locations, genotype Jack): 3.7 bushels per acre
- greater yield than the unsprayed event ([2]; 2× pre-emergence application, separate study, ten locations): 3.1 bushels per acre
- greater yield than the unsprayed event ([2]; 2× pre-emergence application, twenty Midwestern locations, genotype Jack): 4.9 bushels per acre
- average yield advantage versus unsprayed ([2]; early post-emergence application): 0.6 bushels per acre
- average yield advantage versus unsprayed ([2]; pre-emergence application): 1.1 bushels per acre
- % Injury 5-11 DAT [3]: 19%
- % Injury 14-21 DAT [3]: 10%
- % Injury 25-36 DAT [3]: 4%
- mesotrione tolerance of the event [4]: high level of mesotrione tolerance
